Assay results as given in PubChem BioAssay (NCI).
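Briefly, cells in 96-well plates were exposed to five compound concentrations for 48 h, and endpoints were estimated by linear interpolation. TGI denotes the concentration required for complete inhibition of growth.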

Key:
Assay in all cases: NCI tumour cell line growth inhibition, 48 h
[1] = test system: 786-0 renal
[2] = test system: A498 renal
[3] = test system: A549 NSCLC
[4] = test system: ACHN renal
[5] = test system: BT-549 breast
[6] = test system: CAKI-1 renal
[7] = test system: CCRF-CEM leukemia
[8] = test system: COLO 205 colon
[9] = test system: DLD-1 colon
[10] = test system: DMS 114 small cell lung
[11] = test system: DMS 273 small cell lung
[12] = test system: DU-145 prostate
[13] = test system: EKVX NSCLC
[14] = test system: HCC-2998 colon
[15] = test system: HCT-116 colon
[16] = test system: HCT-15 colon
[17] = test system: HL-60(TB) leukemia
[18] = test system: HOP-18 NSCLC
[19] = test system: HOP-62 NSCLC
[20] = test system: HOP-92 NSCLC
[21] = test system: HS 578T breast
[22] = test system: HT29 colon
[23] = test system: IGROV1 ovarian
[24] = test system: K-562 leukemia
[25] = test system: KM12 colon
[26] = test system: KM20L2 colon
[27] = test system: LOX IMVI melanoma
[28] = test system: LXFL 529 NSCLC
[29] = test system: M14 melanoma
[30] = test system: M19-MEL melanoma
[31] = test system: MALME-3M melanoma
[32] = test system: MCF7 breast
[33] = test system: MDA-MB-231 breast
[34] = test system: MDA-MB-435
[35] = test system: MDA-N
[36] = test system: MOLT-4 leukemia
[37] = test system: NCI-H226 lung
[38] = test system: NCI-H23 lung
[39] = test system: NCI-H460 lung
[40] = test system: NCI-H522 lung
[41] = test system: NCI/ADR-RES ovarian
[42] = test system: OVCAR-3 ovarian
[43] = test system: OVCAR-4 ovarian
[44] = test system: OVCAR-5 ovarian
[45] = test system: OVCAR-8 ovarian
[46] = test system: PC-3 prostate
[47] = test system: RPMI-8226 leukemia
[48] = test system: RXF 393 renal
[49] = test system: SF-268 CNS
[50] = test system: SF-295 CNS
[51] = test system: SF-539 CNS
[52] = test system: SK-MEL-2 melanoma
[53] = test system: SK-MEL-28 melanoma
[54] = test system: SK-MEL-5 melanoma
[55] = test system: SK-OV-3 ovarian
[56] = test system: SN12C renal
[57] = test system: SNB-19 CNS
[58] = test system: SNB-75 CNS
[59] = test system: SNB-78 CNS
[60] = test system: SR leukemia
[61] = test system: SW-620 colon
[62] = test system: T-47D breast
[63] = test system: TK-10 renal
[64] = test system: U251 CNS
[65] = test system: UACC-257 melanoma
[66] = test system: UACC-62 melanoma
[67] = test system: UO-31 renal
[68] = test system: XF 498 CNS
[69] = test system: RXF-631 renal

Measured: TGI

CCOc1ccc(NC2=CC(=O)C(=O)c3ccccc32)cc1
11.2 µM: [28]
13.7 µM: [1]
7.8 µM: [43]
17.6 µM: [60]
16.9 µM: [23]
5.9 µM: [21]
10.1 µM: [15]
5.35 µM: [58]
8.01 µM: [11]
39.5 µM: [59]
7.22 µM: [53]
3.19 µM: [34]
3.27 µM: [29]
26 µM: [14]
24.9 µM: [55]
12.2 µM: [2] | [25]
15.8 µM: [22]
3.71 µM: [10]
4.13 µM: [17]
6.97 µM: [39]
5.31 µM: [68]
3.94 µM: [35]
3.53 µM: [61]
14.6 µM: [48]
11.3 µM: [41]
36.7 µM: [26]
15.4 µM: [45]
5.05 µM: [12]
12 µM: [19]
21.7 µM: [9]
10.9 µM: [8]
4.18 µM: [51]
13.3 µM: [37]
9.46 µM: [44] | [57]
3.39 µM: [40]
8.21 µM: [42]
5.74 µM: [4]
19.8 µM: [46]
30.9 µM: [13]
21.6 µM: [63]
54.5 µM: [33]
20.9 µM: [6]
3.2 µM: [66]
13.5 µM: [67]
56.8 µM: [7]
22.4 µM: [49]
26.9 µM: [24]
2.03 µM: [30]
26.2 µM: [47]
16.2 µM: [52]
3.04 µM: [65]
3.31 µM: [56]
7.65 µM: [3]
80.1 µM: [36]
27.9 µM: [62]
3.56 µM: [31]
3.93 µM: [32] | [38]
13.1 µM: [64]
30.7 µM: [20]
4.61 µM: [18]
3.02 µM: [5]
2.77 µM: [27]
6.72 µM: [16]
2.95 µM: [54]
5.4 µM: [50]

C/C(CN1C(=O)c2ccccc2C1=O)=N\NS(=O)(=O)c1ccc(Cl)cc1
not listed: [5] | [10] | [12] | [20] | [21] | [27] | [32] | [33] | [34] | [35] | [41] | [46] | [48] | [49] | [53] | [55] | [62]
> 100 µM: all other assays above

CN(C)CC1CCC/C1=N/OC(=O)c1ccccc1 (configuration not stated)
not listed: [3] | [5] | [12] | [13] | [17] | [21] | [25] | [31] | [32] | [33] | [34] | [35] | [41] | [46] | [57] | [62] | [68]
> 100 µM: all other assays above

CNC(=O)NCCCC(NC(C)=O)C(=O)NCc1ccccc1 (configuration not stated)
not listed: [5] | [12] | [17] | [18] | [21] | [32] | [33] | [34] | [35] | [41] | [46] | [60] | [62] | [68]
> 100 µM: all other assays above
